Assay results taken from patent publication US9809574B2, “Isoindoline or isoquinoline compounds, a process for their preparation and pharmaceutical compositions containing them” (LES LABORATOIRES SERVIER, priority 2013, dated 2017).

Experiments:
[1] = tested on: RS4; 11 leukaemia cell line; assay: In vitro cytotoxicity, Microculture Tetrazolium Assay (MTT); type: cell-based; details: Homo sapiens, 11 cells exposed for 48 hours
Protocol: The cytotoxicity studies were carried out on the RS4; 11 leukaemia cell line and on H146 small Cell Lung Carcinoma cell line. The cells are distributed onto microplates and exposed to the test compounds for 48 hours. The cell viability is then quantified by a colorimetric assay, the Microculture Tetrazolium Assay (Cancer Res., 1987, 47, 939-942).

[2] = molecular target: Bcl-2 protein (histag-Bcl-2, UniProtKB P10415) (Homo sapiens (Human), UniProt P10415); assay: Inhibition of Bcl-2 by the fluorescence polarisation technique; type: binding; details: fluorescence polarisation test; incubation for 2 hours; read-out: IC50 (nM) Bcl-2 FP
Sequence of Bcl-2 protein (P10415 whole entry): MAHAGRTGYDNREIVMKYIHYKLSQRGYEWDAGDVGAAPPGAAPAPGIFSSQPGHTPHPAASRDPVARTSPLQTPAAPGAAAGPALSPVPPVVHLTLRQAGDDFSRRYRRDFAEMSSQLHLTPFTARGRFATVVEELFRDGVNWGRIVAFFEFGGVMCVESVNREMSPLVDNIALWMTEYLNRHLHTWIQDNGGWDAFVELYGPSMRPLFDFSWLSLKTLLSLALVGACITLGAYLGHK
Source text: For partial inhibitors, the percentage fluorescence polarisation inhibition for a given concentration of the test compound is indicated.

Structure (SMILES) | IC50 [1] | IC50 [2]
C[C@@H]1Cc2ccccc2CN1C(=O)c1cc2c(cc1-c1cc(C(=O)N(C)c3ccc(O)cc3)c3n1CCCC3)CN(C(=O)CCc1ccccc1)C2 [Example 15, N-(4-Hydroxyphenyl)-N-methyl-3-{6-[(3R)-3-methyl-1,2,3,4-tetrahydroisoquinoline-2-carbonyl]-2-(3-phenylpropanoyl)-2,3-dihydro-1H-isoindol-5-yl}-5,6,7,8-tetrahydroindolizine-1-carboxamide] | 93 nM | 19 nM
Cc1c(C(=O)N(C)c2ccccc2)cc(-c2cc3c(cc2C(=O)N2Cc4ccccc4C[C@H]2C)CN(C(=O)Oc2ccc4[nH]ccc4c2)CC3)n1C [Example 789, 1H-Indol-5-yl 6-{1,5-dimethyl-4-[methyl(phenyl)carbamoyl]-1H-pyrrol-2-yl}-7-[(3R)-3-methyl-1,2,3,4-tetrahydroisoquinoline-2-carbonyl]-1,2,3,4-tetrahydroisoquinoline-2-carboxylate] | 14 nM | 8.9 nM
Cc1c(C(=O)N(C)c2ccc(O)cc2)cc(-c2cc3c(cc2C(=O)N2Cc4ccccc4C[C@H]2CN2CCOCC2)CN(C(=O)CC24CC5CC(CC(C5)C2)C4)CC3)n1C [Example 798, 5-{2-[2-(Adamantan-1-yl)acetyl]-7-[(3S)-3-(morpholin-4-ylmethyl)-1,2,3,4-tetrahydroisoquinoline-2-carbonyl]-1,2,3,4-tetrahydroisoquinolin-6-yl}-N-(4-hydroxyphenyl)-N,1,2-trimethyl-1H-pyrrole-3-carboxamide] | 76 nM | 9.1 nM
Cc1c(C(=O)N(C)c2ccccc2)cc(-c2cc3c(cc2C(=O)N2Cc4ccccc4C[C@H]2C)CN(C(=O)Oc2ccc(NCCN(C)C)cc2)CC3)n1C [Example 489, 4-{[2-(Dimethylamino)ethyl]amino}phenyl 6-{1,5-dimethyl-4-[methyl(phenyl)carbamoyl]-1H-pyrrol-2-yl}-7-[(3R)-3-methyl-1,2,3,4-tetrahydroisoquinoline-2-carbonyl]-1,2,3,4-tetrahydroisoquinoline-2-carboxylate] | 68 nM | 3.2 nM
C[C@@H]1Cc2ccccc2CN1C(=O)c1cc2c(cc1-c1cc(C(=O)N(C)c3ccc(O)cc3)c3n1CCCC3)CCN(C(=O)Oc1ccc(N)cc1)C2 [Example 58, 4-Aminophenyl 6-{1-[(4-hydroxyphenyl)(methyl)carbamoyl]-5,6,7,8-tetrahydroindolizin-3-yl}-7-[(3R)-3-methyl-1,2,3,4-tetrahydroisoquinoline-2-carbonyl]-1,2,3,4-tetrahydroisoquinoline-2-carboxylate] | 3.3 nM | 4.2 nM
Cc1c(C(=O)N(C)c2ccccc2)cc(-c2cc3c(cc2C(=O)N2Cc4ccccc4C[C@H]2C)CN(C(=O)Oc2cnc4[nH]ccc4c2)CC3)n1C [Example 636, 1H-Pyrrolo[2,3-b]pyridin-5-yl 6-{1,5-dimethyl-4-[methyl(phenyl)carbamoyl]-1H-pyrrol-2-yl}-7-[(3R)-3-methyl-1,2,3,4-tetrahydroisoquinoline-2-carbonyl]-1,2,3,4-tetrahydroisoquinoline-2-carboxylate] | 34 nM | 11 nM
Cc1c(C(=O)N(C)c2ccc(O)cc2)cc(-c2cc3c(cc2C(=O)N2Cc4ccccc4C[C@H]2C)CN(C(=O)OC2CCCCC2)CC3)n1C [Example 790, Cyclohexyl 6-{4-[(4-hydroxyphenyl)(methyl)carbamoyl]-1,5-dimethyl-1H-pyrrol-2-yl}-7-[(3R)-3-methyl-1,2,3,4-tetrahydroisoquinoline-2-carbonyl]-1,2,3,4-tetrahydroisoquinoline-2-carboxylate] | 20 nM | 3.4 nM
Cc1ccc(OC(=O)N2CCc3cc(-c4cc(C(=O)N(C)c5ccc(O)cc5)c(C)n4C)c(C(=O)N4Cc5ccccc5C[C@H]4CN4CCOCC4)cc3C2)cc1 [Example 139, 4-Methylphenyl 6-{4-[(4-hydroxyphenyl)(methyl)carbamoyl]-1,5-dimethyl-1H-pyrrol-2-yl}-7-[(3S)-3-(morpholin-4-ylmethyl)-1,2,3,4-tetrahydroisoquinoline-2-carbonyl]-1,2,3,4-tetrahydroisoquinoline-2-carboxylate] | 0.84 nM | 5.1 nM
Cc1c(C(=O)N(C)c2ccccc2)cc(-c2cc3c(cc2C(=O)N2Cc4ccccc4C[C@H]2C)CN(C(=O)Oc2cccc(N(C)CCN(C)C)c2)CC3)n1C [Example 446, 3-{[2-(Dimethylamino)ethyl](methyl)amino}phenyl 6-{1,5-dimethyl-4-[methyl(phenyl)carbamoyl]-1H-pyrrol-2-yl}-7-[(3R)-3-methyl-1,2,3,4-tetrahydroisoquinoline-2-carbonyl]-1,2,3,4-tetrahydroisoquinoline-2-carboxylate] | 14 nM | 4.3 nM
Cc1c(C(=O)N(C)c2ccccc2)cc(-c2cc3c(cc2C(=O)N2Cc4ccccc4C[C@H]2C)CN(C(=O)Cc2ccc(C#N)cc2)CC3)n1C [Example 150, 5-{2-[2-(4-Cyanophenyl)acetyl]-7-[(3R)-3-methyl-1,2,3,4-tetrahydroisoquinoline-2-carbonyl]-1,2,3,4-tetrahydroisoquinolin-6-yl}-N,1,2-trimethyl-N-phenyl-1H-pyrrole-3-carboxamide] | 16 nM | 4.3 nM
COc1cc(C#N)ccc1OC(=O)N1CCc2cc(-c3cc(C(=O)N(C)c4ccc(O)cc4)c4n3CCCC4)c(C(=O)N3Cc4ccccc4C[C@H]3CN3CCOCC3)cc2C1 [Example 148, 4-Cyano-2-methoxyphenyl 6-{1-[(4-hydroxyphenyl)(methyl)carbamoyl]-5,6,7,8-tetrahydroindolizin-3-yl}-7-[(3S)-3-(morpholin-4-ylmethyl)-1,2,3,4-tetrahydroisoquinoline-2-carbonyl]-1,2,3,4-tetrahydroisoquinoline-2-carboxylate] | 10 nM | 3 nM
CN(C(=O)c1cc(-c2cc3c(cc2C(=O)N2Cc4ccccc4C[C@H]2CN2CCOCC2)CN(C(=O)Oc2ccc(C#N)cc2)CC3)n2c1CCCC2)c1ccc(O)cc1 [Example 127, 4-Cyanophenyl 6-{1-[(4-hydroxyphenyl)(methyl)carbamoyl]-5,6,7,8-tetrahydroindolizin-3-yl}-7-[(3S)-3-(morpholin-4-ylmethyl)-1,2,3,4-tetrahydroisoquinoline-2-carbonyl]-1,2,3,4-tetrahydroisoquinoline-2-carboxylate] | 6.4 nM | 3.3 nM
Cc1c(C(=O)N(C)c2ccc(O)cc2)cc(-c2cc3c(cc2C(=O)N2Cc4ccccc4C[C@H]2CN2CCOCC2)CN(C(=O)Oc2ccc(Br)cc2)CC3)n1C [Example 784, 4-Bromophenyl 6-{4-[(4-hydroxyphenyl)(methyl)carbamoyl]-1,5-dimethyl-1H-pyrrol-2-yl}-7-[(3S)-3-(morpholin-4-ylmethyl)-1,2,3,4-tetrahydroisoquinoline-2-carbonyl]-1,2,3,4-tetrahydroisoquinoline-2-carboxylate] | 2.9 nM | 5.1 nM
Cc1c(C(=O)N(C)c2ccccc2)cc(-c2cc3c(cc2C(=O)N2Cc4ccccc4C[C@H]2C)CN(C(=O)Oc2ccc(CCC(=O)N(C)C)cc2)CC3)n1C [Example 788, 4-[2-(Dimethylcarbamoyl)ethyl]phenyl 6-{1,5-dimethyl-4-[methyl(phenyl)carbamoyl]-1H-pyrrol-2-yl}-7-[(3R)-3-methyl-1,2,3,4-tetrahydroisoquinoline-2-carbonyl]-1,2,3,4-tetrahydroisoquinoline-2-carboxylate] | 14 nM | 4.4 nM
Cc1c(C(=O)N(C)c2ccc(O)cc2)cc(-c2cc3c(cc2C(=O)N2Cc4ccccc4C[C@H]2CN2CCOCC2)CN(C(=O)O[C@@H]2C[C@H](C)CC[C@H]2C(C)C)CC3)n1C [Example 797, (1R,2S,5R)-5-Methyl-2-(propan-2-yl)cyclohexyl 6-{4-[(4-hydroxyphenyl)(methyl)carbamoyl]-1,5-dimethyl-1H-pyrrol-2-yl}-7-[(3S)-3-(morpholin-4-ylmethyl)-1,2,3,4-tetrahydroisoquinoline-2-carbonyl]-1,2,3,4-tetrahydroisoquinoline-2-carboxylate] | 125 nM | 21 nM
C[C@@H]1Cc2ccccc2CN1C(=O)c1cc2c(cc1-c1cc(C(=O)N(C)c3ccc(O)cc3)c3n1CCCC3)CCN(C(=O)N(C)c1ccccc1)C2 [Example 74, 6-{1-[(4-Hydroxyphenyl)(methyl)carbamoyl]-5,6,7,8-tetrahydroindolizin-3-yl}-N-methyl-7-[(3R)-3-methyl-1,2,3,4-tetrahydroisoquinoline-2-carbonyl]-N-phenyl-1,2,3,4-tetrahydroisoquinoline-2-carboxamide] | 94 nM | 6.1 nM
C[C@@H]1Cc2ccccc2CN1C(=O)c1cc2c(cc1-c1cc(C(=O)N(C)c3ccc(O)cc3)c3n1CCCC3)CN(CC(=O)Nc1ccccc1)C2 [Example 92, N-(4-Hydroxyphenyl)-N-methyl-3-{6-[(3R)-3-methyl-1,2,3,4-tetrahydroisoquinoline-2-carbonyl]-2-[(phenylcarbamoyl)methyl]-2,3-dihydro-1H-isoindol-5-yl}-5,6,7,8-tetrahydroindolizine-1-carboxamide] | 105 nM | 20 nM
